# Experimental data published in ChEMBL document CHEMBL5154759, “Discovery of Aryl Benzoyl Hydrazide Derivatives as Novel Potent Broad-Spectrum Inhibitors of Influenza A Virus RNA-Dependent RNA Polymerase (RdRp)” (J Med Chem, 2022).
# Activity calls are given as the source filed them. The rule behind the calls is not given here.
# Tests used:
# Influenza A virus [1] = experiment: microbe, parasite or virus in culture; details: H5N1, MDCK, 48 h
# [2] = AUC(0 to t) in overnight fasted iv dosed Sprague-Dawley rat measured at 0.083 to 24 hrs post dose by LC-MS/MS method; assay type: ADME, organism-based; set-up: time upper 24 hrs, time lower 0.083 hrs, route iv; details: in vivo
# A549 = experiment: Induction of ROS generation in human A549 cells at 50 ug/ml incubated for 30 mins by DCFH-DA dye based fluorescence microscopy; assay type: functional, cell-based; details: dose 50.0 µg/ml
# Influenza A virus [3] = assay type: functional; details: H5N1, MDCK, time 12 hrs
# Influenza A virus [4] = assay type: functional, A/PR/8/34; details: dose 10 mg/kg; route po; time 1 hrs
# HEK293T [5] = experiment: Inhibition of influenza A/WSN/H1N1 virus RNA-dependent RNA polymerase activity in human 293 T cells co-transfected with pPOLI-Fluc assessed as reduction in luciferase activity incubated for 48 hrs by luciferase reporter gene assay; assay type: cell-based
# Influenza A virus [6] = assay type: functional, organism-based; details: H5N1, MDCK, time 12.0 hrs
# Influenza A virus [7] = assay type: functional, organism-based; details: H5N1, MDCK, dose 0.03-100 µM, time 12.0 hrs, DDE = dose-dependent effect
# [8] = Binding affinity to influenza A virus RNA-dependent RNA polymerase PB1 subunit expressed in human 293T cells assessed as dissociation constant by MST assay; details: hek293t
# [9] = Tmax in overnight fasted iv dosed Sprague-Dawley rat plasma measured at 0.083 to 24 hrs post dose by LC-MS/MS method; assay type: ADME, organism-based; details: time 0.083-24 hrs
# Influenza A virus [10] = assay type: functional, A/PR/8/34; details: dose 20 mg/kg; route ig; time 1 hrs
# [11] = AUC(0 to infinity) in overnight fasted iv dosed Sprague-Dawley rat measured at 0.083 to 24 hrs post dose by LC-MS/MS method; assay type: ADME, organism-based; set-up: time 0.083-24 hrs, route iv; details: in vivo
# [12] = Oral bioavailability in overnight fasted Sprague-Dawley rat measured at 0.25 to 24 hrs post dose by LC-MS/MS method; assay type: ADME, organism-based; details: in vivo, time 0.25-24 hrs
# [13] = AUC(0 to t) in overnight fasted po dosed Sprague-Dawley rat measured at 0.25 to 24 hrs post dose by LC-MS/MS method; assay type: ADME, organism-based; set-up: time 0.25-24 hrs, route po; details: in vivo
# Influenza A virus [14] = assay type: functional, organism-based; details: H5N1, MDCK, DDE = dose-dependent effect
# HEK293T [15] = experiment: Inhibition of influenza A/WSN/H1N1 virus RNA-dependent RNA polymerase activity in human 293 T cells co-transfected with pPOLI-Fluc assessed as reduction in luciferase activity at 0.01 uM incubated for 48 hrs by luciferase reporter gene assay relative to control; assay type: cell-based
# [16] = Tmax in overnight fasted po dosed Sprague-Dawley rat plasma measured at 0.25 to 24 hrs post dose by LC-MS/MS method; assay type: ADME, organism-based; details: time 0.25-24 hrs
# [17] = AUC(0 to infinity) in overnight fasted po dosed Sprague-Dawley rat measured at 0.25 to 24 hrs post dose by LC-MS/MS method; assay type: ADME, organism-based; set-up: time upper 24 hrs, time lower 0.25 hrs, route po; details: in vivo
# HEK293T [18] = experiment: Inhibition of influenza A/WSN/H1N1 virus RNA-dependent RNA polymerase activity in human 293 T cells co-transfected with pPOLI-Fluc assessed as reduction of Fluc/Rluc ratio incubated for 48 hrs; assay type: cell-based; details: DDE = dose-dependent effect
# [19] = Acute toxicity in BALB/c mouse infected with influenza A virus A/PR/8/34 assessed as reduction in body weight at 2000 mg/kg, po administered 3 times per day; assay type: organism-based; details: in vivo
# Influenza A virus [20] = assay type: functional, organism-based; details: H5N1, A549, dose 0.018 µM, time 1.0 hrs
# Influenza A virus [21] = assay type: functional, organism-based; details: H5N1, MDCK
# [22] = Cmax in overnight fasted po dosed Sprague-Dawley rat plasma measured at 0.25 to 24 hrs post dose by LC-MS/MS method; assay type: ADME, organism-based; set-up: time upper 24 hrs, time lower 0.25 hrs, route po
# [23] = Cmax in overnight fasted iv dosed Sprague-Dawley rat plasma measured at 0.083 to 24 hrs post dose by LC-MS/MS method; assay type: ADME, organism-based; set-up: time upper 24 hrs, time lower 0.083 hrs, route iv
# HEK293T [24] = experiment: Inhibition of influenza A/WSN/H1N1 virus RNA-dependent RNA polymerase activity in human 293 T cells co-transfected with pPOLI-Fluc assessed as reduction in luciferase activity at 0.1 uM incubated for 48 hrs by luciferase reporter gene assay relative to control; assay type: cell-based
# [25] = Elimination half life in overnight fasted Sprague-Dawley rat at 0.20 ml, iv measured at 0.083 to 24 hrs post dose by LC-MS/MS method; assay type: ADME, organism-based; details: in vivo, 0.2 ml, time 0.083-24 hrs, read-out: beta t1/2 (converted)
# [26] = Clearance in overnight fasted iv dosed Sprague-Dawley rat measured at 0.083 to 24 hrs post dose by LC-MS/MS method; assay type: ADME, organism-based; details: in vivo, time 0.083-24 hrs
# [27] = Bioavailability in overnight fasted iv dosed Sprague-Dawley rat measured at 0.083 to 24 hrs post dose by LC-MS/MS method; assay type: ADME, organism-based; details: in vivo, time 0.083-24 hrs
# Influenza A virus [28] = assay type: functional, organism-based; details: H5N1, MDCK, dose 1.0 µM, time 48.0 hrs
# [29] = Elimination half life in overnight fasted po dosed Sprague-Dawley rat measured at 0.25 to 24 hrs post dose by LC-MS/MS method; assay type: ADME, organism-based; details: in vivo, time 0.25-24 hrs, read-out: beta t1/2 (converted)
# Influenza A virus [30] = assay type: functional, organism-based; details: H5N1, MDCK, dose 0.8 µM, time 12.0 hrs
# Influenza A virus [31] = assay type: functional, organism-based; details: A/Aichi/2/68 (H3N2), MDCK, 48 h
# Influenza A virus [32] = assay type: functional, organism-based; details: A/Anhui/1/2013 (H7N9), MDCK, 48 h
# Influenza A virus [33] = assay type: functional, organism-based; details: A/Puerto Rico/8/34 (H1N1), MDCK, 48 h
# Influenza A virus [34] = assay type: functional, organism-based; details: A/Vietnam/1194/2004 (H5N1), MDCK, 48 h
# Influenza A virus [35] = experiment: Antiviral activity against influenza A virus (A/Puerto Rico/8/34) H1N1; assay type: functional, organism-based; details: (A/Puerto Rico/8/34) H1N1, MDCK
# Influenza A virus [36] = experiment: Antiviral activity against influenza A virus (A/Vietnam/1203/2004) H5N1; assay type: functional, organism-based; details: (A/Vietnam/1203/2004) H5N1, MDCK
# Influenza A virus [37] = details: mdck
structure (smiles),measurement,setting,value
CN(C)c1ccc(C(=O)NNc2c(Br)cc(Br)cc2Br)cc1,EC50,Influenza A virus [1],0.23 µM
O=C(NNc1c(Br)cccc1Br)c1ccccc1,EC50,Influenza A virus [1],81 µM
Cc1ccc(C(=O)NNc2c(Cl)cccc2Cl)cc1,EC50,Influenza A virus [1],4.1 µM
CCOc1ccc(C(=O)NNc2c(C)cccc2C)cc1,EC50,Influenza A virus [1],0.46 µM
COc1cccc(C(=O)NNc2c(Br)cccc2Br)c1,EC50,Influenza A virus [1],> 100 µM
Cc1cccc(C)c1NNC(=O)c1ccc(C(C)(C)C)cc1,EC50,Influenza A virus [1],0.22 µM
CCN(CC)c1ccc(C(=O)NNc2c(Br)cccc2Br)cc1,EC50,Influenza A virus [1],0.0093 µM
CCOc1ccc(C(=O)NNc2cccc(Br)c2)cc1,EC50,Influenza A virus [1],> 100 µM
CCc1ccc(C(=O)NNc2c(Br)cccc2Br)cc1,EC50,Influenza A virus [1],0.078 µM
O=C(NNc1c(Br)cccc1Br)c1ccc2c(c1)OCO2,EC50,Influenza A virus [1],13 µM
O=C(NNc1c(Br)cccc1Br)c1ccc(O)cc1,EC50,Influenza A virus [1],> 100 µM
O=C(NNc1c(Br)cccc1Br)c1ccc(-c2ccccc2)cc1,EC50,Influenza A virus [1],0.083 µM
CCOc1ccc(C(=O)Nc2c(Br)cccc2Br)cc1,EC50,Influenza A virus [1],> 100 µM
COC(=O)c1ccc(C(=O)NNc2c(Br)cccc2Br)cc1,EC50,Influenza A virus [1],0.33 µM
CN(C)c1ccc(C(=O)NNc2c(Cl)cccc2Cl)cc1,EC50,Influenza A virus [1],0.046 µM
CCOc1ccc(C(=O)NNc2ccccc2Br)cc1,EC50,Influenza A virus [1],> 100 µM
O=C(NNc1c(Cl)cccc1Cl)c1ccccc1,EC50,Influenza A virus [1],> 100 µM
O=C(NNc1c(Br)cccc1Br)c1ccc(N2CCOCC2)cc1,AUC(0-t),[2],1480 ng·h/mL
same,Activity,A549,Active
same,inhibition at 0.03 µM,Influenza A virus [3],> 50%
same,Activity,Influenza A virus [4],100%
same,Activity,HEK293T [5],Active
same,Activity,Influenza A virus [6],Active
same,Activity,Influenza A virus [7],Dde
same,Kd,[8],0.351 µM
same,Tmax,[9],4.8 min
same,EC50,Influenza A virus [1],0.018 µM
same,Activity,Influenza A virus [10],70%
same,AUC(0-inf),[11],1500 ng·h/mL
same,bioavailability,[12],32.2%
same,AUC(0-t),[13],1590 ng·h/mL
same,Activity,Influenza A virus [14],Dde
same,inhibition,HEK293T [15],60%
same,Tmax,[16],25.2 min
same,AUC(0-inf),[17],1710 ng·h/mL
same,Activity,HEK293T [18],Dde
same,Activity,[19],Toxic
same,Activity,Influenza A virus [20],Active
same,Activity,Influenza A virus [21],Active
same,Cmax,[22],635 ng/mL
same,Cmax,[23],2520 ng/mL
same,inhibition,HEK293T [24],91%
same,half-life,[25],90 min
same,clearance,[26],33.8 mL/min/kg
same,F,[27],100%
same,Activity,Influenza A virus [28],Active
same,half-life,[29],109 min
same,Activity,Influenza A virus [30],Active
CCOc1ccc(C(=O)NNc2ccc(Br)cc2Br)cc1,EC50,Influenza A virus [1],> 100 µM
O=C(NNc1c(Br)cccc1Br)c1ccc(B(O)O)cc1,EC50,Influenza A virus [1],> 100 µM
CCCOc1ccc(C(=O)NNc2c(Br)cccc2Br)cc1,EC50,Influenza A virus [1],0.023 µM
CN(C)c1ccc(C(=O)NNc2c(F)cccc2F)cc1,EC50,Influenza A virus [1],> 100 µM
CCOc1ccc(C(=O)NNc2c(F)cccc2F)cc1,EC50,Influenza A virus [1],31 µM
CC(C)(C)c1ccc(C(=O)NNc2c(Br)cccc2Br)cc1,EC50,Influenza A virus [1],0.037 µM
CCOc1ccc(C(=O)NNc2c(Cl)cccc2Cl)cc1,EC50,Influenza A virus [1],0.077 µM
CCc1ccc(C(=O)NNc2c(Br)cc(Br)cc2Br)cc1,EC50,Influenza A virus [1],4.4 µM
O=C(NNc1c(Br)cccc1Br)c1ccc(Br)cc1,EC50,Influenza A virus [1],22 µM
NC(=O)c1nc(F)cnc1O,Activity,Influenza A virus [6],Active
N#Cc1ccc(C(=O)NNc2c(Br)cccc2Br)cc1,EC50,Influenza A virus [1],> 100 µM
O=c1oc2cc(O)cc(O)c2c2ccccc12,EC50,Influenza A virus [31],1.7 µM
same,EC50,Influenza A virus [32],1.7 µM
same,EC50,Influenza A virus [33],1.7 µM
same,EC50,Influenza A virus [34],1.7 µM
O=C(O)[C@H]1C2CCC(CC2)[C@@H]1Nc1nc(-c2c[nH]c3ncc(F)cc23)ncc1F [PIMODIVIR],EC50,Influenza A virus [35],0.0003 µM
same,EC50,Influenza A virus [36],0.0001 µM
O=C(NNc1c(Br)cccc1Br)c1cccnc1,EC50,Influenza A virus [1],> 100 µM
O=C(O)c1ccc(C(=O)NNc2c(Br)cccc2Br)cc1,EC50,Influenza A virus [1],> 100 µM
O=C(NNc1c(Br)cccc1Br)c1ccc2ccccc2c1,EC50,Influenza A virus [1],1.2 µM
CC(=O)N[C@H]1[C@H]([C@H](O)[C@H](O)CO)OC(C(=O)O)=C[C@@H]1NC(=N)N [ZANAMIVIR],EC50,Influenza A virus [37],0.16 µM
same,EC50,Influenza A virus [1],0.076 µM
CCOc1ccc(C(=O)NNc2c(Br)cc(Br)cc2Br)cc1,EC50,Influenza A virus [1],4.2 µM
CCOc1ccc(C(=O)N(C)Nc2c(Cl)cccc2Cl)cc1,EC50,Influenza A virus [1],> 100 µM
CCCc1ccc(C(=O)NNc2c(Cl)cccc2Cl)cc1,EC50,Influenza A virus [1],0.19 µM
CN(C)c1ccc(C(=O)NNc2c(Br)cccc2Br)cc1,EC50,Influenza A virus [1],0.031 µM
COc1ccc(C(=O)NNc2c(F)cccc2F)cc1,EC50,Influenza A virus [1],> 100 µM
O=C(NNc1c(Br)cccc1Br)c1ccc(F)cc1,EC50,Influenza A virus [1],88 µM
O=C(NNc1c(Br)cccc1Br)c1ccc2ncccc2c1,EC50,Influenza A virus [1],24 µM
COc1ccc(C(=O)NNc2c(Br)cccc2Br)cc1,EC50,Influenza A virus [1],2.3 µM
Nc1ccc(C(=O)NNc2c(Br)cccc2Br)cc1,EC50,Influenza A virus [1],7.8 µM
CCOc1ccc(C(=O)NNc2ccc(Br)cc2)cc1,EC50,Influenza A virus [1],> 100 µM
CCCCOc1ccc(C(=O)NNc2c(Br)cccc2Br)cc1,EC50,Influenza A virus [1],0.23 µM
CCOc1ccc(C(=O)NNc2c(C)cccc2Cl)cc1,EC50,Influenza A virus [1],0.1 µM
CCOc1ccc(C(=O)NNc2c(Br)cccc2Br)cc1,EC50,Influenza A virus [1],0.034 µM
O=C(NNc1c(Br)cccc1Br)c1ccc(OCC(F)(F)F)cc1,EC50,Influenza A virus [1],0.034 µM
O=C(NNc1c(Cl)cccc1Cl)c1cccs1,EC50,Influenza A virus [1],> 100 µM
COc1ccccc1C(=O)NNc1c(Br)cccc1Br,EC50,Influenza A virus [1],> 100 µM
